Values joined by “and” are separate entries in the source; they are usually repeats but may differ in a detail not shown here. Identical values can stand only once. Like-named read-outs stand apart in the source and are kept apart here.
What was measured:
[1] = In vitro release (dialysis bag method) and release kinetics modelling; type: physicochemical
Procedure: The release medium was phosphate-buffered saline, prepared according to pharmacopeial standards and consisting of 0.02% KCl (w/v), 0.02% KH2PO4 (w/v), 0.116% Na2HPO4 (w/v), and 0.8% NaCl (w/v) (adjusted with 10 mM NaOH, pH 7.4) ([Anvisa, 2019]).
The dialysis bags containing CUR-loaded NCs were immersed in the phosphate-buffered saline medium at 37 °C with horizontal shaking at 50 rpm.
At predetermined intervals, 2 mL of the medium was withdrawn for analysis with a UV spectrophotometer (UV-1800, Shimadzu, Japan) at 427 nm. The experiments were conducted in triplicate (n = 3), with results reported as the percentage of drug released over time.
Evaluated models included zero-order (Equation 1), monoexponential (Equation 2), bi-exponential (Equation 3), Weibull (Equation 4), and Higuchi (Equation 5). F=k0·t (1) F=100 ·1−e^−k1·t (2) F=100·1−Ae^−αt+Be^−βt (3) F=100·1−e^−t^β/α (4) F=kH·t^0.5 (5) where F is the percentage of drug released at time t (h), k 0 is the zero-order release constant (h^−1), k 1 is the first-order release constant (h^−1), A and B represent the fractions of drug distributed in different phases, and α and β (h^−1) are the specific kinetic rate constants. k H represents the Higuchi release constant.
The drug release mechanism was further evaluated by fitting the data to the Peppas-Sahlin (Equation 6) and Korsmeyer-Peppas (Equation 7) models: F=k1· t^0.5+k2 ·t (6) F=kKP·t^n (7) where k 1 is the constant (h^−1) denoting the relative contribution of t ^0.5 dependent drug diffusion to drug release, k 2 is the constant (h^−1) denoting the relative contribution of t-dependent polymer relaxation to drug release, k KP is the kinetic constant of the Korsmeyer-Peppas model, and n is the diffusion exponent that indicates the drug transport mechanism.
The release profiles were plotted and fitted using different in vitro release models. The results of the in vitro drug release study were evaluated based on dissolution efficiency and independent/dependent kinetic models. Model selection was performed considering the highest correlation coefficient (R ^2) and the Akaike Information Criterion (AIC) ([Vieira et al., 2016]).

[2] = Stability of CUR in spiked S1 flies (whole-body fly homogenate supernatant); type: in vitro ADME, D. melanogaster
Procedure: (§1) This homogenate was prepared by weighing 0.02 g of whole flies, followed by adding 600 µL of acetonitrile and homogenizing with an Ultra-Turrax (T10, GmbH, Germany) for 30 s at 28,800 rpm. The mixture was centrifuged at 14,000 rpm for 10 min at 4 °C to obtain the whole-body fly homogenate supernatant (S1). Subsequently, 90 µL of S1 was spiked with 10 µL of each calibration standard and 10 µL of the IS. Deproteinization was achieved by adding 1,000 µL of acetonitrile and 10 µL of 0.2% HCl. The mixtures were vortexed for 5 min, then centrifuged at 14,000 rpm for 10 min at 4 °C. The supernatant was separated, evaporated to dryness using a centrifugal vacuum concentrator at 45 °C for 60 min, and the residue reconstituted in 100 µL of mobile phase.
(§2) Stability tests were performed under identical conditions for both matrices: room temperature for 6 h (22 °C ± 3 °C), in the autosampler for up to 24 h (22 °C ± 3 °C), after 60 days in a freezer (−80 °C ± 2 °C), and across three freeze-thaw cycles, with each thawing period at room temperature for approximately 2 h and refreezing for 12 h at −20 °C. For each species, three replicates at concentrations of 3 and 150 ng/mL were tested.
(§3) Samples were deemed stable if the results fell within the acceptable limits of accuracy (±15% of nominal concentration) and precision (±15% CV). For the LLOQ, the CV was not to exceed 20% ([FDA, 2018]; [ICH, 2019]).

[3] = Stability of CUR in spiked rat plasma; type: in vitro ADME; conditions: Plasma rats
Procedure: The rat plasma extraction was processed similarly to that of the flies, with 10 µL of each calibration standard sample mixed with 90 µL of blank rat plasma and 10 µL of the IS, followed by deproteinization with acetonitrile.
as §2, §3

[4] = Fly whole-body CUR quantification after 10-day dietary exposure, healthy flies; type: in vivo, D. melanogaster; conditions: both sexes, Drosophila melanogaster, whole-body homogenate, oral, 110 ng/mL in food medium for 10 days
Procedure: as §1
Adult healthy flies (1–3 days old) of both sexes were used, with each group consisting of 25 males and 25 females (n = 6 replicates/50 flies each). […] The medium was replaced every 3 days. The dosing and study design were based on our previous study ([Fernandes et al., 2023]).

[5] = Fly whole-body CUR quantification, lipopolysaccharide-induced inflammation; type: in vivo, D. melanogaster; conditions: LPS 250 μg/mL in food medium + 37 ng/mL for 10 days
Procedure: as §1

[6] = Pharmacokinetic study in rodents (non-compartmental analysis); type: in vivo, Wistar rats
Procedure: As described in our previous study, the NC-CUR was prepared via the interfacial deposition method of preformed polymers, ensuring the same final concentration ([Santos et al., 2021]). […] For the oral administration groups, blood sampling began 0.25 h post-gavage (Figure 1B). […] Pharmacokinetic parameters were calculated using non-compartmental analysis with PKanalix 2023R1 software (Lixoft, France). Plasma concentration-time profiles for each experimental group were analyzed individually.

[7] = ref Nakama et al., 2020; cited from earlier work
[8] = parameters: method as in Yang et al., 2007; conditions: rats; 500 mg kg; ref Yang et al., 2007; cited from earlier work
[9] = parameters: method as in Wang et al., 2018; conditions: mice; intravenous administration of 20 mg kg; ref Wang et al., 2018; cited from earlier work
[10] = test system: healthy flies; parameters: method as in Fernandes et al., 2023; conditions: ref Fernandes et al., 2023; cited from earlier work
[11] = nominal 3 ng/mL, 6 h (bench-top)
[12] = nominal 3 ng/mL, 24 h 6 h (bench-top)
[13] = nominal 3 ng/mL, Freeze-thaw cycles
[14] = nominal 150 ng/mL, 6 h (bench-top)
[15] = nominal 150 ng/mL, 24 h (autosampler)
[16] = nominal 150 ng/mL, 60 d (−80 °C)
[17] = nominal 150 ng/mL, Freeze-thaw cycles
[18] = male, Wistar, rat, plasma, iv, 2 mg/kg, Intravenous 2 mg/kg
[19] = male, Wistar, rat, plasma, Intravenous 2 mg/kg
[20] = male, Wistar, rat, plasma, Oral 6 mg/kg

With `COc1cc(/C=C/C(=O)CC(=O)/C=C/c2ccc(O)c(OC)c2)ccc1O` [CUR, Curcumin] the B ([1]; Biexponencial model) was 11.93 ± 2.50, the α ([1]; Biexponencial model) was 0.15 ± 0.02 h⁻¹ and the β ([1]; Biexponencial model) was 0.17 ± 0.01 h⁻¹. The A ([1]; Biexponencial model (chosen model), PBS pH 7.4) was 78.99 ± 2.50, the kH ([1]; Higuchi model) was 18.05 ± 0.07 h⁻¹ and the k ([1]; Monoexponencial model, PBS pH 7.4) was 0.14 ± 0.00 h⁻¹. For the same compound, the α ([1]; Weibull model) was 4.73 ± 0.06 h⁻¹, the β ([1]; Weibull model) was 0.82 ± 0.01 h⁻¹ and the “k 0” value ([1]; Zero order model, PBS pH 7.4) was 2.57 ± 0.01 h⁻¹. For the same compound, the drug released ([1]; at 6 h) was 56.09%, the drug released ([1]; at 12 h) was 97.69% and ~100% and the Accuracy [2, 11] was 84.45%. The “Mean ± SD” value [2, 11] was 2.74 ± 0.39 ng/mL, the Accuracy [2, 12] was 114.19% and the “Mean ± SD” value [2, 12] was 3.23 ± 0.24 ng/mL. For the same compound, the Accuracy ([2]; nominal 3 ng/mL, 60 d (−80 °C)) was 103.03%, the “Mean ± SD” value ([2]; nominal 3 ng/mL, 60 d (−80 °C)) was 3.09 ± 0.26 ng/mL and the Accuracy [2, 13] was 106.81%. For the same compound, the “Mean ± SD” value [2, 13] was 3.20 ± 0.27 ng/mL, the Accuracy [2, 14] was 94.59% and the “Mean ± SD” value [2, 14] was 144.26 ± 4.68 ng/mL. The Accuracy [2, 15] was 89.72%, the “Mean ± SD” value [2, 15] was 142.32 ± 4.62 ng/mL and the Accuracy [2, 16] was 98.39%. The “Mean ± SD” value [2, 16] was 147.59 ± 16.88 ng/mL, the Accuracy [2, 17] was 95.99% and the “Mean ± SD” value [2, 17] was 143.99 ± 13.47 ng/mL. For the same compound, the “Mean ± SD” value [3, 11] was 2.58 ± 0.04 ng/mL, the Accuracy [3, 12] was 98.08% and the “Mean ± SD” value [3, 12] was 2.94 ± 0.19 ng/mL. The Accuracy ([3]; nominal 3 ng/mL, 60 d (−80 °C)) was 86.28%, the “Mean ± SD” value ([3]; nominal 3 ng/mL, 60 d (−80 °C)) was 2.58 ± 0.05 ng/mL and the Accuracy [3, 13] was 86.23%. For the same compound, the “Mean ± SD” value [3, 13] was 2.58 ± 0.04 ng/mL, the Accuracy [3, 14] was 99.1% and the “Mean ± SD” value [3, 14] was 148.64 ± 1.35 ng/mL. The Accuracy [3, 15] was 99.84%, the “Mean ± SD” value [3, 15] was 149.75 ± 0.92 ng/mL and the Accuracy [3, 16] was 98.84%. The “Mean ± SD” value [3, 16] was 148.26 ± 0.17 ng/mL, the Accuracy [3, 17] was 99.1% and the “Mean ± SD” value [3, 17] was 148.64 ± 1.35 ng/mL. For the same compound, the concentration at 10 days [4] was roughly 75 ng/mL, the “CUR concentration in whole-body homogenates” value [5] was “markedly reduced CUR levels” and the kel ([6]; Intravenous 2 mg/kg) was 0.75 h−¹. For the same compound, the CL ([6]; Intravenous 2 mg/kg, 2 mg/kg) was 7.71 L/h, the t1/2 ([6]; Intravenous 2 mg/kg, 2 mg/kg) was 1.17 h and the “AUC0-∞” value ([6]; Intravenous 2 mg/kg, male Wistar rats, n = 9, 2 mg/kg) was 100.41 ng·h/mL. The kel ([6]; Oral 6 mg/kg) was 0.54 h−¹, the clearance [6, 18] was 125 mL/min and the half-life [6, 18] was 1.77 ± 0.45 h. It also gave an AUC(0-inf) ([6]; male, Wistar, rat, plasma, iv, 2 mg/kg, Intravenous 2 mg/kg, male Wistar rats, n = 9) of 100 ± 24.4 ng·h/mL, a half-life ([6]; male, Wistar, rat, plasma, po, 6 mg/kg, Oral 6 mg/kg) of 1.7 h and an AUC(0-inf) ([6]; male, Wistar, rat, plasma, po, 6 mg/kg, Oral 6 mg/kg, male Wistar rats, n = 12) of 25.6 ng·h/mL. The Cmax [6, 19] was 231 ng/mL, the MRT [6, 19] was 0.79 h and the Vd [6, 19] was 12.8 L. It also gave a Cmax [6, 20] of 8.04 ng/mL, an MRT [6, 20] of 3 h and a Tmax [6, 20] of 1.31 h. For the same compound, the bioavailability ([6]; male, Wistar, rat, plasma, Oral 6 mg/kg vs intravenous 2 mg/kg, read-out: Fabs (absolute bioavailability)) was 8.48%, the “Log P” value [7] was roughly 3.2 and the “oral bioavailability (administered dose absorbed)” value [8] was “about 1%”. The half-life [9] was “approximately 32.4 min” and the “concentrations producing increased survival and enhanced antioxidant defenses” value [10] was “above 300 μM”.
